Data: publication PMC3882240, “Matrix Stiffness Affects Endocytic Uptake of MK2-Inhibitor Peptides” (PLoS ONE, 2014)
Where a SMILES comes first, the peptide text is derived from it. Where no end group is shown, it is not given here. The star is where a group is joined. FITC = O=C1OC2(c3ccc(O)cc3Oc3cc(O)ccc32)c2ccc(NC(=S)*)cc21; Ahx = NCCCCCC(=O)O

Tested on: mesothelial cells
Test: Intracellular uptake of FITC-YARA by flow cytometry / confocal imaging
Assay type: cell-based, Human
Method: Flow cytometry was used to characterize the uptake of FITC-YARA. Mesothelial cells were seeded on gel substrates or tissue culture plastic, and cultured as previously described. After treating overnight with serum free media, cells were treated with various concentrations of FITC-YARA (refer to figures) or PBS (untreated control) in serum free media and incubated for 24 hours. To collect cells for flow cytometry, cells were washed with PBS, trypsin treated for 5–10 minutes, neutralized with serum-containing media, collected in a 15-ml conical tube and spun down at 300 × g for seven minutes. Cells were washed with PBS, quenched with trypan blue, then washed four to five times with PBS. Once excess trypan blue was washed away, cells were fixed using 1X cytofix buffer (BD). Samples were stored protected from light at 4°C until samples were run on the Cytomics FC500 MPL flow cytometer (Beckman Coulter) equipped with MXP Cytometry List Mode Data Acquisition and Analysis Software. Data acquisition required 10,000 events. Figures were obtained using Flow Jo software.
To characterize uptake on soft substrates, cells were pretreated with 10 mM methyl-β-cyclodextrin (MβCD) for 1 hour or incubated at 4°C for 30 minutes, then treated with 3 µM YARA for 1 hour. Cells were then collected and assayed by flow cytometry as previously described.
To elucidate the role of the cytoskeleton in the uptake of FITC-YARA, mesothelial cells were treated with various chemicals known to alter the cytoskeleton. Cytochalasin D (Sigma; 5 µg/ml) was used as an inhibitor of stress fiber formation on tissue culture plastic, lysophosphatidic acid (LPA; Sigma; 1,5,and 25 µg/ml ) was used to induce stress fiber formation on soft substrates and tissue culture plastic, and nocodozole (Calbiochem; 1 and 10 µg/ml) was used to inhibit microtubule polymerization on soft substrates. Cells were seeded and grown on substrates or tissue culture plastic as previously described. Following one hour pretreatment with the various inhibitors, cells were incubated with FITC-YARA for 1 hour then processed for flow cytometry.
For confocal images, cells were treated with FITC-YARA for 1 hour, then washed five times with media before imaging live using an FV1000 confocal microscopy equipped with ASW-10 software (Olympus).

Compound	uptake on soft substrates compared to tissue culture plastic at high seeding density (3 µM FITC-YARA, 71,000 cells/cm^2, flow cytometry)	uptake on soft substrates compared to tissue culture plastic (3 µM FITC-YARA, 24 h, 21,000 cells/cm^2, serum-free media, flow cytometry, trypan blue quench)	intracellular uptake compared to untreated controls (all substrates, 3 µM FITC-YARA, 24 h, flow cytometry)	uptake on soft substrates with MβCD (soft substrate, 10 mM methyl-β-cyclodextrin pretreatment 1 h then 3 µM peptide 1 h, flow cytometry)	uptake on soft substrates at 4°C (soft substrate, 30 min at 4°C then 3 µM peptide 1 h, flow cytometry)	effect of cytochalasin D (actin filament disruption) on peptide uptake (3 µM, TCPS, 5 µg/ml cytochalasin D 1 h pretreatment, peptide 1 h, flow cytometry)	effect of nocodazole (microtubule polymerization inhibition) on uptake (3 µM, soft substrate, 21,000 cells/cm^2, 1 or 10 µg/ml nocodazole 1 h pretreatment, peptide 1 h, flow cytometry, dose dependent)	effect of LPA (actin filament induction) on peptide uptake (3 µM, soft substrate, 21,000 cells/cm^2, 5 or 25 µg/ml LPA 1 h pretreatment, peptide 1 h, flow cytometry)
CC(C)C[C@H](NC(=O)[C@H](C)NC(=O)[C@H](CCCCN)NC(=O)[C@H](C)NC(=O)[C@H](CCCNC(=N)N)NC(=O)[C@H](C)NC(=O)[C@H](CCC(N)=O)NC(=O)[C@H](CCCNC(=N)N)NC(=O)[C@H](C)NC(=O)[C@H](C)NC(=O)[C@H](C)NC(=O)[C@H](CCCNC(=N)N)NC(=O)[C@H](C)NC(=O)[C@H](Cc1ccc(O)cc1)NC(=O)CCCCCNC(=S)Nc1ccc2c(c1)C(=O)OC21c2ccc(O)cc2Oc2cc(O)ccc21)C(=O)N[C@@H](C)C(=O)N[C@@H](CCCNC(=N)N)C(=O)N[C@@H](CCC(N)=O)C(=O)N[C@@H](CC(C)C)C(=O)NCC(=O)N[C@H](C(=O)N[C@@H](C)C(=O)N[C@@H](C)C(N)=O)C(C)C [FITC-YARA] ({FITC-Ahx}-YARAAARQARAKALARQLGVAA-NH2)	decreased the amount of FITC-YARA that was endocytosed	approximately double the uptake	increased intracellular uptake compared to untreated controls	inhibited with MβCD pretreatment	inhibited at low temperatures	–	–	–
YARAAARQARAKALARQLGVAA-NH2 [YARA]	–	–	–	–	–	no effect on peptide uptake	pronounced increase in YARA uptake	no effect on peptide uptake
